Activity calls are given as the source filed them. How the calls were made is not given here.

The text below walks through data of PubChem BioAssay AID1259407 (Chemical Carcinogenesis Research Information System (CCRIS), 2018).

In the series the test system is CCRIS mutagenicity, Ames/micronucleus/aberration tests. The series is described as follows: CCRIS mutagenicity studies.
[1] abbreviates: Test System: AMES SALMONELLA TYPHIMURIUM, Strain/Indicator: TA100, Metabolic Activation: NONE, Method: STANDARD PLATE.
[2] abbreviates: Test System: AMES SALMONELLA TYPHIMURIUM, Strain/Indicator: TA100, Metabolic Activation: NONE, Method: PREINCUBATION
Setting [3] is: Test System: AMES SALMONELLA TYPHIMURIUM, Strain/Indicator: TA1535, Metabolic Activation: NONE, Method: PREINCUBATION

Regarding `NCCc1c[nH]c2ccc(O)cc12` (tested in a mixture with another compound), the mutagenic call is “inactive; negative” (Test System: AMES SALMONELLA TYPHIMURIUM, Strain/Indicator: TA97A, Metabolic Activation: NONE, Method: STANDARD PLATE); “inactive; negative” (Test System: AMES SALMONELLA TYPHIMURIUM, Strain/Indicator: TA97A, Metabolic Activation: RAT LIVER S-9, PHENOBARBITOL/BETA-NAPHTHOFLAVONE, Method: STANDARD PLATE); “inactive; negative” (Test System: AMES SALMONELLA TYPHIMURIUM, Strain/Indicator: TA98, Metabolic Activation: NONE, Method: STANDARD PLATE); “inactive; negative” (Test System: AMES SALMONELLA TYPHIMURIUM, Strain/Indicator: TA98, Metabolic Activation: RAT LIVER S-9, PHENOBARBITOL/BETA-NAPHTHOFLAVONE, Method: STANDARD PLATE); “inactive; negative” under setting [1]; “inactive; negative” (Test System: AMES SALMONELLA TYPHIMURIUM, Strain/Indicator: TA100, Metabolic Activation: RAT LIVER S-9, PHENOBARBITOL/BETA-NAPHTHOFLAVONE, Method: STANDARD PLATE). For the same molecule, the mutagenic call (Test System: AMES SALMONELLA TYPHIMURIUM, Strain/Indicator: TA1535, Metabolic Activation: NONE, Method: STANDARD PLATE) was “inactive; negative”; the mutagenic call (Test System: AMES SALMONELLA TYPHIMURIUM, Strain/Indicator: TA1535, Metabolic Activation: RAT LIVER S-9, PHENOBARBITOL/BETA-NAPHTHOFLAVONE, Method: STANDARD PLATE) was “inactive; negative”; the mutagenic call (Test System: AMES SALMONELLA TYPHIMURIUM, Strain/Indicator: TA1537, Metabolic Activation: NONE, Method: STANDARD PLATE) was “inactive; negative”; the mutagenic call (Test System: AMES SALMONELLA TYPHIMURIUM, Strain/Indicator: TA1537, Metabolic Activation: RAT LIVER S-9, PHENOBARBITOL/BETA-NAPHTHOFLAVONE, Method: STANDARD PLATE) was “inactive; negative”; the mutagenic call (Test System: E.COLI, Strain/Indicator: WP2/UVRA, Metabolic Activation: NONE, Method: STANDARD PLATE) is “inactive; negative”; the mutagenic call (Test System: E.COLI, Strain/Indicator: WP2/UVRA, Metabolic Activation: RAT LIVER S-9, PHENOBARBITOL/BETA-NAPHTHOFLAVONE, Method: STANDARD PLATE) was “inactive; negative”.

Regarding `c1ccc(CN2C3c4ccccc4-c4ccccc4C32)cc1` (centres undefined), the mutagenic call under setting [1] is “active; positive”.

For the molecule `O=C(O)Cc1ccc([N+](=O)[O-])cc1`, the mutagenic call by setting is: (Test System: AMES SALMONELLA TYPHIMURIUM, Strain/Indicator: TA98, Metabolic Activation: NONE, Method: PREINCUBATION) “active; positive”; under setting [2], “active; positive”; under setting [3], “inactive; negative”; (Test System: AMES SALMONELLA TYPHIMURIUM, Strain/Indicator: TA1537, Metabolic Activation: NONE, Method: PREINCUBATION) “inactive; negative”; (Test System: AMES SALMONELLA TYPHIMURIUM, Strain/Indicator: TA1538, Metabolic Activation: NONE, Method: PREINCUBATION) “inactive; negative”.

For `C=CC(=O)OCC1CO1` (centres undefined), the mutagenic call reads like this: (Test System: AMES SALMONELLA TYPHIMURIUM, Strain/Indicator: TA100, Metabolic Activation: HAMSTER, LIVER, S-9, AROCLOR 1254 (10%), Method: PREINCUBATION) “active; positive”; under setting [2], “active; positive”; (Test System: AMES SALMONELLA TYPHIMURIUM, Strain/Indicator: TA100, Metabolic Activation: RAT, LIVER, S-9, AROCLOR 1254 (10%), Method: PREINCUBATION) “active; positive”; (Test System: AMES SALMONELLA TYPHIMURIUM, Strain/Indicator: TA1535, Metabolic Activation: HAMSTER, LIVER, S-9, AROCLOR 1254 (10%), Method: PREINCUBATION) “active; positive”; under setting [3], “active; positive”; (Test System: AMES SALMONELLA TYPHIMURIUM, Strain/Indicator: TA1535, Metabolic Activation: RAT, LIVER, S-9, AROCLOR 1254 (10%), Method: PREINCUBATION) “active; positive”.
